Legend:
Test in all cases: radiometric filter-binding kinase assay
[1] = tested on: AKT1 (human), P31749 [S473D]; settings: compound 1.0 µM; ATP 5 µM
CAMKK2 (human) = CAMKK2 (human) (UniProt Q96RR4); settings: compound 1.0 µM; ATP 20 µM
CHEK2 (human) = CHEK2 (human) (UniProt O96017); settings: compound 1.0 µM; ATP 20 µM
CaMK1 (human) = CaMK1 (human) (UniProt Q14012); settings: compound 1.0 µM; ATP 50 µM
DYRK1A (human) = DYRK1A (human) (UniProt Q13627); settings: compound 1.0 µM; ATP 50 µM
DYRK2 (human) = DYRK2 (human) (UniProt Q92630); settings: compound 1.0 µM; ATP 50 µM
DYRK3 (human) = DYRK3 (human) (UniProt O43781); settings: compound 1.0 µM; ATP 5 µM
EEF2K (human) = EEF2K (human) (UniProt O00418); settings: compound 1.0 µM
IKBKB (human) = IKBKB (human) (UniProt O14920); settings: compound 1.0 µM; ATP 5 µM
MAPK3 (human) = MAPK3 (human) (UniProt P27361); settings: compound 1.0 µM; ATP 5 µM
MAPK8 (human) = MAPK8 (human) (UniProt P45983); settings: compound 1.0 µM; ATP 20 µM
MAPKAPK3 (human) = MAPKAPK3 (human) (UniProt Q16644); settings: compound 1.0 µM; ATP 20 µM
MARK3 (human) = MARK3 (human) (UniProt P27448); settings: compound 1.0 µM; ATP 5 µM
MELK (human) = MELK (human) (UniProt Q14680); settings: compound 1.0 µM; ATP 50 µM
MYLK (human) = MYLK (human) (UniProt Q15746); settings: compound 1.0 µM
NEK6 (human) = NEK6 (human) (UniProt Q9HC98); settings: compound 1.0 µM; ATP 50 µM
PAK7 (human) = PAK7 (human) (UniProt Q9P286); settings: compound 1.0 µM; ATP 20 µM
PHKG1 or PHKG2 (human) = PHKG1 or PHKG2 (human) (UniProt P15735+Q16816); settings: compound 1.0 µM; ATP 50 µM
PIM1 (human) = PIM1 (human) (UniProt P11309); settings: compound 1.0 µM; ATP 20 µM
PIM2 (human) = PIM2 (human) (UniProt Q9P1W9); settings: compound 1.0 µM; ATP 5 µM
PRKAA1 or PRKAA2 (rat) = settings: compound 1.0 µM
PRKCA (human) = PRKCA (human) (UniProt P17252); settings: compound 1.0 µM; ATP 20 µM
PRKCG (human) = PRKCG (human) (UniProt P05129); settings: compound 1.0 µM; ATP 5 µM
ROCK2 (human) = ROCK2 (human) (UniProt O75116); settings: compound 1.0 µM; ATP 20 µM
RPS6KA1 KD1 KD2 (human) = RPS6KA1 KD1 KD2 (human) (UniProt Q15418); settings: compound 1.0 µM; ATP 50 µM
RPS6KA3 KD1 KD2 (human) = RPS6KA3 KD1 KD2 (human) (UniProt P51812); settings: compound 1.0 µM; ATP 50 µM
[2] = tested on: SGK1 (human), O00141 [S422D]; settings: compound 1.0 µM; ATP 20 µM
SRC (chicken) = settings: compound 1.0 µM, ATP 50 µM
STK3 (human) = STK3 (human) (UniProt Q13188); settings: compound 1.0 µM; ATP 20 µM
[3] = accession and sequence are those of the human protein

MAPK3 (human), sequence (P27361 whole entry, looked up): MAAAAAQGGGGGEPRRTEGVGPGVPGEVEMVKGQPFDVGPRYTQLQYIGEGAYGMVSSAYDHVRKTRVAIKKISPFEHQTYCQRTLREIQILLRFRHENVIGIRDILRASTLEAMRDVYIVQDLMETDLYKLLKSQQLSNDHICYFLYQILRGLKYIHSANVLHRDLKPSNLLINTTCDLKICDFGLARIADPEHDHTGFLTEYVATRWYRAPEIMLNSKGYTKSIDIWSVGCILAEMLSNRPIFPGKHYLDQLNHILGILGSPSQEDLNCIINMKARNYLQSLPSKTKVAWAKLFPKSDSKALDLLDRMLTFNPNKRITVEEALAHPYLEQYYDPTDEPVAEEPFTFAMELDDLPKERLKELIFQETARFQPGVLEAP
MELK (human), sequence (Q14680 whole entry, looked up): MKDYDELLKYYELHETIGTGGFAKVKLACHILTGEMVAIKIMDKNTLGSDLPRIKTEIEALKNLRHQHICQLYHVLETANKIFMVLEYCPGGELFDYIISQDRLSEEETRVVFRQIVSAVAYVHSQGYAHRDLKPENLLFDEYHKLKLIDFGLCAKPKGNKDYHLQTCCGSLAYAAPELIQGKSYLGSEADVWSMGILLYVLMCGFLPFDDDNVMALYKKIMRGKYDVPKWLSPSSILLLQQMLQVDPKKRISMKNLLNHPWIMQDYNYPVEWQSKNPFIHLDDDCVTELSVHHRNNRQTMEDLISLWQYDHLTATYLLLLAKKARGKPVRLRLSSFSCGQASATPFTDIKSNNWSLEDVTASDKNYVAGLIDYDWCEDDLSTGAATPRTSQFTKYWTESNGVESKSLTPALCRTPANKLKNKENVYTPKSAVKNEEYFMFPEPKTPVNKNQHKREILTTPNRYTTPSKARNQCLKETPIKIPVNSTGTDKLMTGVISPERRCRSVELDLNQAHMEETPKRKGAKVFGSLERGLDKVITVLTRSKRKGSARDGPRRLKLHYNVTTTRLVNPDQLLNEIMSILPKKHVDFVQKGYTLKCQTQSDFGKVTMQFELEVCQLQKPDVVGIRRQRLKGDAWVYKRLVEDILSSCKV
PIM1 (human), sequence (P11309 whole entry, looked up): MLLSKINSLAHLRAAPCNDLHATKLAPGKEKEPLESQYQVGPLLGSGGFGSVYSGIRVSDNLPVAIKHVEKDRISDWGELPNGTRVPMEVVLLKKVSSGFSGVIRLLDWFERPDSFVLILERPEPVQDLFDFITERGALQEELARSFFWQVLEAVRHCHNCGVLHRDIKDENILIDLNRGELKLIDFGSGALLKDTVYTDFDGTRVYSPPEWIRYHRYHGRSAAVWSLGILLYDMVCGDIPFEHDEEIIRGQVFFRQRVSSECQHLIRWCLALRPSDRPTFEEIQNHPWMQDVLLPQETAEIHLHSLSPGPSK
EEF2K (human), sequence (O00418 whole entry, looked up): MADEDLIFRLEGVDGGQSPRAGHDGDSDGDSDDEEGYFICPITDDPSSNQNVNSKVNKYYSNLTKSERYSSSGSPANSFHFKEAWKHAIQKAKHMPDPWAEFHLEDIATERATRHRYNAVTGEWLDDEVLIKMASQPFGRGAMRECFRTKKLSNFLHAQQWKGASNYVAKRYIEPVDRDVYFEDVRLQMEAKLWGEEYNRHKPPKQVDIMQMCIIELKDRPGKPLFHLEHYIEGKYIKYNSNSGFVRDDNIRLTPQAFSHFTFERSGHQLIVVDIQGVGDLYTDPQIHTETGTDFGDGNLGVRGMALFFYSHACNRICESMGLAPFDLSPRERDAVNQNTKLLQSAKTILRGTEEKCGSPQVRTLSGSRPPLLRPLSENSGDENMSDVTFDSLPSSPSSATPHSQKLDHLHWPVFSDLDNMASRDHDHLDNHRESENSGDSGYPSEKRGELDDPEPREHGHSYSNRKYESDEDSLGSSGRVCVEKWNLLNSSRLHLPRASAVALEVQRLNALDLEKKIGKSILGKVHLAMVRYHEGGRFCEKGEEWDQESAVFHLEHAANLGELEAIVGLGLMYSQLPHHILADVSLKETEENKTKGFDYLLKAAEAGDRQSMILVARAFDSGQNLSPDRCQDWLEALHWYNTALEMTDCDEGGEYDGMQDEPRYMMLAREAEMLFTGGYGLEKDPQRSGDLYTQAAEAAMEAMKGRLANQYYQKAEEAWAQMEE
DYRK2 (human), sequence (Q92630 whole entry, looked up): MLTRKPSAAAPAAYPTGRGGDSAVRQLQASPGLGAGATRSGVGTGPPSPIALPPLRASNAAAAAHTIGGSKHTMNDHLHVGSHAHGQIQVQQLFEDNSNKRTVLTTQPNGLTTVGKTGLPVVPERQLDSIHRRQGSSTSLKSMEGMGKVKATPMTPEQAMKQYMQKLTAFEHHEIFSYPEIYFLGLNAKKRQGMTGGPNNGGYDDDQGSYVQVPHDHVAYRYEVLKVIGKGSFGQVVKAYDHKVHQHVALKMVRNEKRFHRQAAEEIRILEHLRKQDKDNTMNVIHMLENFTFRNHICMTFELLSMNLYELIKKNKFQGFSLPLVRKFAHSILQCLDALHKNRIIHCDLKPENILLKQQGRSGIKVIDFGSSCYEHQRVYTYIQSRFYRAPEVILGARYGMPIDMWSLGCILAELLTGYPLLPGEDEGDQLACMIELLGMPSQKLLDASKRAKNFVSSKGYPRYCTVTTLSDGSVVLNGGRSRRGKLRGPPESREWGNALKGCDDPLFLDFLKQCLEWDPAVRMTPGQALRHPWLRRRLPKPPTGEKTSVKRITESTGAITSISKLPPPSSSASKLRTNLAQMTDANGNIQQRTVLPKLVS
SGK1 (human), O00141 [S422D], sequence (O00141 whole entry S422D, looked up): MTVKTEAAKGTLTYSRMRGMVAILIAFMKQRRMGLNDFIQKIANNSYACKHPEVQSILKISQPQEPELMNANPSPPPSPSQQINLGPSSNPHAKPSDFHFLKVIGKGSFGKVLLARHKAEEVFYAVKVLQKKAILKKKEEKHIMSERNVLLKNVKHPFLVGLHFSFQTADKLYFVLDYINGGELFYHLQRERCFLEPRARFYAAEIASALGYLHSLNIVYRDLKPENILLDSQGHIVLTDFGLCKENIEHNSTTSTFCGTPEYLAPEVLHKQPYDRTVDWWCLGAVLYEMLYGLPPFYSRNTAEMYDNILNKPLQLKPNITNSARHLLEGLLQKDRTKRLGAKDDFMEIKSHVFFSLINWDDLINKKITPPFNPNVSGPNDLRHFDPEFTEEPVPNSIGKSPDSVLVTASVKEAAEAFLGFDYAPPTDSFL
MAPK8 (human), sequence (P45983 whole entry, looked up): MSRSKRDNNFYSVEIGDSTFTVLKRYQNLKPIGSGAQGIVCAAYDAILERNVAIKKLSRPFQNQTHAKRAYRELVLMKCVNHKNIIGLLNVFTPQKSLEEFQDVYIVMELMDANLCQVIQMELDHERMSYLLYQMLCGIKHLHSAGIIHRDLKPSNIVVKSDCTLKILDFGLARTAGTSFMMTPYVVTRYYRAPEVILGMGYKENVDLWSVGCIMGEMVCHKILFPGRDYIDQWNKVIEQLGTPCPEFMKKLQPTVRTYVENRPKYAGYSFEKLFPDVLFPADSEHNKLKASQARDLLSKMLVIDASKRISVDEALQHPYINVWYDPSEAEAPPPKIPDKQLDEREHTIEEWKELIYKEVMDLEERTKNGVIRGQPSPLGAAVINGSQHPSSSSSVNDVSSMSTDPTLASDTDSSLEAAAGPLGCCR
IKBKB (human), sequence (O14920 whole entry, looked up): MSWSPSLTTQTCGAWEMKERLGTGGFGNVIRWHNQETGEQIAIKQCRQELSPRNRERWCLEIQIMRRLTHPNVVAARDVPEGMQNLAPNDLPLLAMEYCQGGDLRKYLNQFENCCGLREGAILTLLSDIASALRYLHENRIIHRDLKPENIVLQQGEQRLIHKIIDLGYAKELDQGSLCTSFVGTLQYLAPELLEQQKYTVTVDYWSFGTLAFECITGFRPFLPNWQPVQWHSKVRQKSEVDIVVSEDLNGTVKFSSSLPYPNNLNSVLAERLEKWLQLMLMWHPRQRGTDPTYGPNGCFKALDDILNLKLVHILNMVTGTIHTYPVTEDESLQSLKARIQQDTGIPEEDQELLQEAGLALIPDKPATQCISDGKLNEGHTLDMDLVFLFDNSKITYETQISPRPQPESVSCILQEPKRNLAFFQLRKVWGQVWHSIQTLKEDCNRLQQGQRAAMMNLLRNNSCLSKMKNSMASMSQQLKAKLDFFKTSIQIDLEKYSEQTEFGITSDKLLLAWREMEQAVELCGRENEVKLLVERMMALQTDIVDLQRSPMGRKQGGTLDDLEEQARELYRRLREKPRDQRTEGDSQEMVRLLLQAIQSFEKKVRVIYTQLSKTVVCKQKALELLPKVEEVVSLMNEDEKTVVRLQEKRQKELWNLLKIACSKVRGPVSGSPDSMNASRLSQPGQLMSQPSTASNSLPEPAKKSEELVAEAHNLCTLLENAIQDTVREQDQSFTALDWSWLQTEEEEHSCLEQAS

| SMILES | residual activity [1] | residual activity (CAMKK2 (human)) | residual activity (CHEK2 (human)) | residual activity (CaMK1 (human)) | residual activity (DYRK1A (human)) | residual activity (DYRK2 (human)) | residual activity (DYRK3 (human)) | residual activity (IKBKB (human)) | residual activity (MAPK3 (human)) | residual activity (MAPK8 (human)) | residual activity (MAPKAPK3 (human)) | residual activity (MARK3 (human)) | residual activity (MELK (human)) | residual activity (NEK6 (human)) | residual activity (PAK7 (human)) | residual activity (PHKG1 or PHKG2 (human)) | residual activity (PIM1 (human)) | residual activity (PIM2 (human)) | residual activity (PRKCA (human)) | residual activity (PRKCG (human)) | further results |
| --- | --- | --- | --- | --- | --- | --- | --- | --- | --- | --- | --- | --- | --- | --- | --- | --- | --- | --- | --- | --- | --- |
| CO[C@H]1CC2CC[C@@H](C)[C@@](O)(O2)C(=O)C(=O)N2CCCC[C@H]2C(=O)OC([C@H](C)C[C@@H]2CC[C@@H](O)[C@H](OC)C2)CC(=O)[C@H](C)/C=C(\C)[C@@H](O)[C@@H](OC)C(=O)[C@H](C)C[C@H](C)/C=C/C=C/C=C/1C (some centres not stated) | 91% | 83% | 92% | 97% | 91% | 84% | 88% | 82% | 100% | 90% | 104% | 88% | 74% | 95% | 89% | 95% | 91% | 117% | 88% | 92% | residual activity (EEF2K (human); ATP 5 µM): 94%; residual activity (MYLK (human); ATP 50 µM): 107%; residual activity (PRKAA1 or PRKAA2 (rat); [3]): 87%; residual activity (ROCK2 (human)): 103%; residual activity (RPS6KA1 KD1 KD2 (human)): 90%; residual activity (RPS6KA3 KD1 KD2 (human)): 97%; residual activity [2]: 93%; residual activity (SRC (chicken); [3]): 86%; residual activity (STK3 (human)): 90% |
| COc1ccc2c(c1)=NC1=C(C)NCCC=21 | 95% | 89% | 117% | 103% | 29% | 73% | 49% | 94% | 108% | 96% | 97% | 110% | 95% | 94% | 84% | 84% | 104% | 117% | 90% | 84% | residual activity (EEF2K (human)): 107%; residual activity (MYLK (human)): 112%; residual activity (PRKAA1 or PRKAA2 (rat)): 106%; residual activity (ROCK2 (human)): 79%; residual activity (RPS6KA1 KD1 KD2 (human)): 110%; residual activity (RPS6KA3 KD1 KD2 (human)): 112%; residual activity [2]: 85%; residual activity (SRC (chicken)): 94%; residual activity (STK3 (human)): 101% |
| COC[C@H]1OC(=O)c2coc3c2[C@@]1(C)C1=C(C3=O)[C@@H]2CCC(=O)[C@@]2(C)C[C@H]1OC(C)=O | 97% | 71% | 90% | 97% | 88% | 98% | 84% | 96% | 106% | 84% | 98% | 85% | 61% | 113% | 72% | 74% | 87% | 83% | 68% | 84% | residual activity (EEF2K (human); ATP 5 µM): 97%; residual activity (MYLK (human); ATP 50 µM): 72%; residual activity (PRKAA1 or PRKAA2 (rat); [3]): 88%; residual activity (ROCK2 (human)): 99%; residual activity (RPS6KA1 KD1 KD2 (human)): 86%; residual activity (RPS6KA3 KD1 KD2 (human)): 90%; residual activity [2]: 86%; residual activity (SRC (chicken); [3]): 83%; residual activity (STK3 (human)): 96% |
